In ChEMBL document CHEMBL4507276 (2021):

Key:
[1] = biological target: Thyroid hormone receptor alpha (Rattus norvegicus) (UniProt P63059); assay: TRTH_AGON Cerep selectivity data (BI); details: filed as agonist, Compound concentration 20.0 uM
[2] = biological target: Dual specificity protein kinase CLK2 (Homo sapiens) (UniProt P49760); assay: CLK2 Invitrogen selectivity data (BI); details: Compound concentration 3.0 uM
[3] = biological target: Cyclin-dependent kinase 2/cyclin A (Homo sapiens) (UniProt P24941+P20248+P78396); assay: CDK2/CYCLINA Invitrogen selectivity data (BI); type: protein-complex assay; details: Compound concentration 3.0 uM
[4] = biological target: Corticotropin-releasing factor receptor 1 (Homo sapiens) (UniProt P34998); assay: CRF1/H Cerep selectivity data (BI); details: Compound concentration 20.0 uM
Chain of Corticotropin-releasing factor receptor 1 (Homo sapiens) (P34998 whole entry): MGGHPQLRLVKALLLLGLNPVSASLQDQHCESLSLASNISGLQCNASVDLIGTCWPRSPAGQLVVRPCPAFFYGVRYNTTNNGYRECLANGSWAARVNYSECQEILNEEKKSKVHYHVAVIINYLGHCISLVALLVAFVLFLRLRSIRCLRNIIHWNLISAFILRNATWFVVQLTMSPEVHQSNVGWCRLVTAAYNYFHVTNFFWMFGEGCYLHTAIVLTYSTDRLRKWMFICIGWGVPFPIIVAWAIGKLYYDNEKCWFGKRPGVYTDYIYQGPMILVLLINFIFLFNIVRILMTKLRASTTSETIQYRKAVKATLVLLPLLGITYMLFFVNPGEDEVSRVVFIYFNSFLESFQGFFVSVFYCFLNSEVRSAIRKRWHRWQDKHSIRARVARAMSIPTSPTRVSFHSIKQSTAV

[5] = biological target: T1, Tyrosine-protein kinase Mer (Homo sapiens) (UniProt Q12866); assay: MERTK Invitrogen selectivity data (BI); details: Compound concentration 3.0 uM
T1 sequence (whole entry): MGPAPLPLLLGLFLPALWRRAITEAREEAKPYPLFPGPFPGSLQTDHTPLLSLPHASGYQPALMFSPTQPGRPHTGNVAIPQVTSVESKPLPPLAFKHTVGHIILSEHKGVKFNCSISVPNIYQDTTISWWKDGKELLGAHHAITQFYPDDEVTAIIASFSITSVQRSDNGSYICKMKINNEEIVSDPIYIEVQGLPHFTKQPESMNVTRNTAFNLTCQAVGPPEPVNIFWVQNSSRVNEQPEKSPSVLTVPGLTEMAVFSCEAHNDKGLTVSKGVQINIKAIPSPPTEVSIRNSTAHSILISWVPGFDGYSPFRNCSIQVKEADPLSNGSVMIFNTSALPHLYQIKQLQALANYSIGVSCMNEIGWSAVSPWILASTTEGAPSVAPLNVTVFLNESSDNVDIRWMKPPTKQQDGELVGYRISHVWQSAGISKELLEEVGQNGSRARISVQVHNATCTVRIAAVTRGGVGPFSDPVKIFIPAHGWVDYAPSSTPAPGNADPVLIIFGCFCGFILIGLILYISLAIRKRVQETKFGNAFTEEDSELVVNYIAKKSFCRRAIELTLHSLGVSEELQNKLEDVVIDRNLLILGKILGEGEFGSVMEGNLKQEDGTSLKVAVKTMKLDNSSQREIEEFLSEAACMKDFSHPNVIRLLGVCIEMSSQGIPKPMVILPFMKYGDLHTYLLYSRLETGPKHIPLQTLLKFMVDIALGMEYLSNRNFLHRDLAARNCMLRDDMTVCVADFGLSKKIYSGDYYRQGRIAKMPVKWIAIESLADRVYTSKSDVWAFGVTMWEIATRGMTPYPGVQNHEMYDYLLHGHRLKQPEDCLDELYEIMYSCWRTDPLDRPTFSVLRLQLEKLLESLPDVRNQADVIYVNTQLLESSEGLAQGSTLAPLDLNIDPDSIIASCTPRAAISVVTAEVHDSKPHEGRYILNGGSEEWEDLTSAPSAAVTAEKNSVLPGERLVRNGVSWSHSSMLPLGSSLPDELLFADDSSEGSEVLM

[6] = biological target: T2, Mitogen-activated protein kinase kinase kinase 7 (Homo sapiens) (UniProt O43318); assay: MAP3K7_K7IP1 Invitrogen selectivity data (BI); details: Compound concentration 3.0 uM
T2 sequence (whole entry): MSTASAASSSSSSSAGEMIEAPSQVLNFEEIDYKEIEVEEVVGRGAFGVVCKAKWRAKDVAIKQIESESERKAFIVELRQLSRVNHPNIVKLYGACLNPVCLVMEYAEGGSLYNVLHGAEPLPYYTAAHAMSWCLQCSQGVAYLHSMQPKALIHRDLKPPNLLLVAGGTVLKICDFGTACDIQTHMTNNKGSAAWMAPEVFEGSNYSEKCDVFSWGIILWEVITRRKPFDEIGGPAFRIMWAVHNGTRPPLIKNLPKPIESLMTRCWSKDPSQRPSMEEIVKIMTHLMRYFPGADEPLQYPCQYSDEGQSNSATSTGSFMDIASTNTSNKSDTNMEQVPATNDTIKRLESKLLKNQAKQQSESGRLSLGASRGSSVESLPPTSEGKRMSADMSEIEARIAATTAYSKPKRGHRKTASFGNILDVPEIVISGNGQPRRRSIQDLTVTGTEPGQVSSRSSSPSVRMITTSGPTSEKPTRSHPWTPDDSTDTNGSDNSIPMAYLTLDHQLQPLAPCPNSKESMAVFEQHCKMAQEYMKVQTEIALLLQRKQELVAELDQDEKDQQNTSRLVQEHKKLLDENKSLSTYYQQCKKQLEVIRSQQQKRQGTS

[7] = biological target: Tyrosine-protein kinase Fes/Fps (Homo sapiens) (UniProt P07332); assay: FES Invitrogen selectivity data (BI); details: Compound concentration 3.0 uM
Chain of Tyrosine-protein kinase Fes/Fps (Homo sapiens) (P07332 whole entry): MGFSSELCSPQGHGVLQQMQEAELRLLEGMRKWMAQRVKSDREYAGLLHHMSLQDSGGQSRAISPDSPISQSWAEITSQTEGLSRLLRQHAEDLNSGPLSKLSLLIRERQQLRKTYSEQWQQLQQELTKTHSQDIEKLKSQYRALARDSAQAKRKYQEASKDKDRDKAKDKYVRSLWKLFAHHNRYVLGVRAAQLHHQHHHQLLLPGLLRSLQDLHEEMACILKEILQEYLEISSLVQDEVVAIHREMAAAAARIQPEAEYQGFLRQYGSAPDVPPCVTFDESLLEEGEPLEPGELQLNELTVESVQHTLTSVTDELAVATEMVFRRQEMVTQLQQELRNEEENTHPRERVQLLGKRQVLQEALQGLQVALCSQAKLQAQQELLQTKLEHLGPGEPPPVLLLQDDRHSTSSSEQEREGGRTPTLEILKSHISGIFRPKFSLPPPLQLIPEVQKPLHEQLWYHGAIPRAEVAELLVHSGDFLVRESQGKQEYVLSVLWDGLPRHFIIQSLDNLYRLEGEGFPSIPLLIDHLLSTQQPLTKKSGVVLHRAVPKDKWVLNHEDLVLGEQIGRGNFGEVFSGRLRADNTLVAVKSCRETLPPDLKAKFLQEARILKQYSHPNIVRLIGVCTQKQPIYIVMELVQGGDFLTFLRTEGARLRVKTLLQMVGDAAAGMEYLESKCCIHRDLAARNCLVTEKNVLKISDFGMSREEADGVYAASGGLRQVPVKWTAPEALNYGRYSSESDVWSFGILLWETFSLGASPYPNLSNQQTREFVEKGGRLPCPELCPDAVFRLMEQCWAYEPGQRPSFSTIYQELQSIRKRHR

[8] = biological target: Neuronal acetylcholine receptor; alpha4/beta2 (Homo sapiens) (UniProt P17787+P43681); assay: N_NEURO_A4B2 Cerep selectivity data (BI); type: protein-complex assay; details: filed as agonist, Compound concentration 20.0 uM
[9] = biological target: Wee1-like protein kinase (Homo sapiens) (UniProt P30291); assay: WEE1 Invitrogen selectivity data (BI); details: Compound concentration 3.0 uM
Chain of Wee1-like protein kinase (Homo sapiens) (P30291 whole entry, looked up): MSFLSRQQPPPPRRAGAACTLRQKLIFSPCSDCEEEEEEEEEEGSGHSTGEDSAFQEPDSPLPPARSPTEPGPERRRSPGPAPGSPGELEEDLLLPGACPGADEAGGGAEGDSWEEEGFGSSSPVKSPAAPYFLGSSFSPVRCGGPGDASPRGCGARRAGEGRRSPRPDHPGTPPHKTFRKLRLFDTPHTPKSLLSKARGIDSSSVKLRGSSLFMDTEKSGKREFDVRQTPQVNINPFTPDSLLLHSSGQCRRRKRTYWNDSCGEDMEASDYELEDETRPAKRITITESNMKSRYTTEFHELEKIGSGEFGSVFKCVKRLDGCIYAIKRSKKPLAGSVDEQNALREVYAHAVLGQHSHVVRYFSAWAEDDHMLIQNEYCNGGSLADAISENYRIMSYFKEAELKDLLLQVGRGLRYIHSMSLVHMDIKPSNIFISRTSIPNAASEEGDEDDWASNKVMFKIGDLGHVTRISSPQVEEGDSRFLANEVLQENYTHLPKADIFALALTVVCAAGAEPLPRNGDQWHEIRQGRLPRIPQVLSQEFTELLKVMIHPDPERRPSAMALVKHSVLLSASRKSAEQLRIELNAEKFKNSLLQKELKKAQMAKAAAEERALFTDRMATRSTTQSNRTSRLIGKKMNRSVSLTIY

[10] = biological target: Platelet-derived growth factor receptor alpha (Homo sapiens) (UniProt P16234); assay: PDGFRA Invitrogen selectivity data (BI); details: Compound concentration 3.0 uM
Chain of Platelet-derived growth factor receptor alpha (Homo sapiens) (P16234 whole entry): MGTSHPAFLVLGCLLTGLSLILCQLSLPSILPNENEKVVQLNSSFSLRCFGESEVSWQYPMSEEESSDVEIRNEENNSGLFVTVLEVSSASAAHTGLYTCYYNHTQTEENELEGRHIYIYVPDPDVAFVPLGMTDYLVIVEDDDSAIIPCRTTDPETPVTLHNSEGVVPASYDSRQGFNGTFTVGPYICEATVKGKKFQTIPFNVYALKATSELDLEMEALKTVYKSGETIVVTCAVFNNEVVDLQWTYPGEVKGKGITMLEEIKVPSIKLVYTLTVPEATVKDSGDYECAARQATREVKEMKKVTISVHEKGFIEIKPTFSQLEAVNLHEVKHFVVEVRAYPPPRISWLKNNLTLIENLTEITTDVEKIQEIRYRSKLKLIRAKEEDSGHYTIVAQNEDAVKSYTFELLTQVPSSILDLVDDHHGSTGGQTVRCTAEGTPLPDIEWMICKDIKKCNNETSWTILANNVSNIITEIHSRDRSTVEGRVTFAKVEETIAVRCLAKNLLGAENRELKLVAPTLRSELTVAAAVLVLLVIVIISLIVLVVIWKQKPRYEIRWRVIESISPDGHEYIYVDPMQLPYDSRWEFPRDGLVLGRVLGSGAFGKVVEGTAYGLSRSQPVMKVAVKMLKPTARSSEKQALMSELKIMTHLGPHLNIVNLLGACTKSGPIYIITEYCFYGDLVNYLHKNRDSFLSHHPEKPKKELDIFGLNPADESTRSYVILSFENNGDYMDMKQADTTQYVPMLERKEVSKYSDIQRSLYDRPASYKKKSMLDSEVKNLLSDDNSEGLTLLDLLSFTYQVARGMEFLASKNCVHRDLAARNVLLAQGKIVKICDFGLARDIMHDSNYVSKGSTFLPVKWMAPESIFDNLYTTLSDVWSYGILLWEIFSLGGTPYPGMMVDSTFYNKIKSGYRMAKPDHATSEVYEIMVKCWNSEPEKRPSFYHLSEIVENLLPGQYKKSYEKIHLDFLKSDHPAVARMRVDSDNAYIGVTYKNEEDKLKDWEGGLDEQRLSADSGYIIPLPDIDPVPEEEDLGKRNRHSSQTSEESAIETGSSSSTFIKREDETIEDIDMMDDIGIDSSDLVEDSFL

[11] = biological target: Tyrosine-protein kinase Srms (Homo sapiens) (UniProt Q9H3Y6); assay: SRMS Invitrogen selectivity data (BI); details: Compound concentration 3.0 uM
Chain of Tyrosine-protein kinase Srms (Homo sapiens) (Q9H3Y6 whole entry): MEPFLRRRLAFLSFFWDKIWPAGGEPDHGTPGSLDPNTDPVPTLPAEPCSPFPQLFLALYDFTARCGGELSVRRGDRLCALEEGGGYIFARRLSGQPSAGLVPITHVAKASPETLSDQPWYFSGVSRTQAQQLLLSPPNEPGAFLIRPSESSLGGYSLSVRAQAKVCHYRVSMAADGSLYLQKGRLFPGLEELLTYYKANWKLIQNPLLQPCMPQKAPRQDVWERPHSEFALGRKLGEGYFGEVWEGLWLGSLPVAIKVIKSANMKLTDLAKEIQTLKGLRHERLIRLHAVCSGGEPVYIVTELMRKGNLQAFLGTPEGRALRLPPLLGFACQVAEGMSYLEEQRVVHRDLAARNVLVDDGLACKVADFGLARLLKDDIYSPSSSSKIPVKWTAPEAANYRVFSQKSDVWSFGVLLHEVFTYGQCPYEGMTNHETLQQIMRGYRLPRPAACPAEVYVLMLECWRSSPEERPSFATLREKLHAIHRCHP

[12] = biological target: Muscarinic acetylcholine receptor M3 (Homo sapiens) (UniProt P20309); details: Compound concentration 10.0 uM
[13] = biological target: T3, MAP kinase-activated protein kinase 5 (Homo sapiens) (UniProt Q8IW41); assay: MAPKAPK5 Invitrogen selectivity data (BI); details: Compound concentration 3.0 uM
T3 sequence (whole entry): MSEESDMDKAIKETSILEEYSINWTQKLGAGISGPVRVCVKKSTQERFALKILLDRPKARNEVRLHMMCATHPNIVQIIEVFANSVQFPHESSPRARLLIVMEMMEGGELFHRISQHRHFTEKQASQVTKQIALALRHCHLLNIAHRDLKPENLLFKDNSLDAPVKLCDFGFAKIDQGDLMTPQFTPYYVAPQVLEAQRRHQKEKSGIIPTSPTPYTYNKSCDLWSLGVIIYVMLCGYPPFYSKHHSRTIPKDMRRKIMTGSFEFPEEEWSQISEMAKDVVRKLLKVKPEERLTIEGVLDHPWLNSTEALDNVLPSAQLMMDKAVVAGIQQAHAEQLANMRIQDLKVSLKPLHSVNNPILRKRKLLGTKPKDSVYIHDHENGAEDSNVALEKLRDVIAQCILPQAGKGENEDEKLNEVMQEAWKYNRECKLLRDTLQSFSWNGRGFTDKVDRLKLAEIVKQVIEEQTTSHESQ

[14] = biological target: Cysteinyl leukotriene receptor 1 (Homo sapiens) (UniProt Q9Y271); assay: LTD4/H Cerep selectivity data (BI); details: Compound concentration 20.0 uM
[15] = tested on: Epidermal growth factor receptor (Homo sapiens), P00533 [T790M]; assay: EGFR T790M Invitrogen selectivity data (BI); details: Compound concentration 3.0 uM
[16] = biological target: Cyclin-dependent kinase 1/cyclin B (Homo sapiens) (UniProt P06493+P14635+Q8WWL7+O95067); assay: CDK1/CYCLINB Invitrogen selectivity data (BI); type: protein-complex assay; details: Compound concentration 3.0 uM
[17] = biological target: Peroxisome proliferator-activated receptor gamma (Homo sapiens) (UniProt P37231); assay: PPARG/H AG Cerep selectivity data (BI); details: filed as agonist, Compound concentration 20.0 uM
Chain of Peroxisome proliferator-activated receptor gamma (Homo sapiens) (P37231 whole entry): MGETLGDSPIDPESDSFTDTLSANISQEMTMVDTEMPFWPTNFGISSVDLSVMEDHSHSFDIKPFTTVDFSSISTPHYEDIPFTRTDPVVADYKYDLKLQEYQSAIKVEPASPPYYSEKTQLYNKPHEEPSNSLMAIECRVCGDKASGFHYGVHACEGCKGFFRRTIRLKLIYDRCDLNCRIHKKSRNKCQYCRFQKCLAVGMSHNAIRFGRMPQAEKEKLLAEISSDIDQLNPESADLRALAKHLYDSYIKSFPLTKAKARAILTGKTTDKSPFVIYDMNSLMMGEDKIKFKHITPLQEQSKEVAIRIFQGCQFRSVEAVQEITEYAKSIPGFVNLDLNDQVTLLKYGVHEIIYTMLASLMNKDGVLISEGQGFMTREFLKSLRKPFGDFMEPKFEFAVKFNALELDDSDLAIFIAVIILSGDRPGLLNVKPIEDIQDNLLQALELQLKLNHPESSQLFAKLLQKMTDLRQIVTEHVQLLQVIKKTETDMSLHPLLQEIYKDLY

Chain of Thyroid hormone receptor alpha (Rattus norvegicus) (P63059 whole entry): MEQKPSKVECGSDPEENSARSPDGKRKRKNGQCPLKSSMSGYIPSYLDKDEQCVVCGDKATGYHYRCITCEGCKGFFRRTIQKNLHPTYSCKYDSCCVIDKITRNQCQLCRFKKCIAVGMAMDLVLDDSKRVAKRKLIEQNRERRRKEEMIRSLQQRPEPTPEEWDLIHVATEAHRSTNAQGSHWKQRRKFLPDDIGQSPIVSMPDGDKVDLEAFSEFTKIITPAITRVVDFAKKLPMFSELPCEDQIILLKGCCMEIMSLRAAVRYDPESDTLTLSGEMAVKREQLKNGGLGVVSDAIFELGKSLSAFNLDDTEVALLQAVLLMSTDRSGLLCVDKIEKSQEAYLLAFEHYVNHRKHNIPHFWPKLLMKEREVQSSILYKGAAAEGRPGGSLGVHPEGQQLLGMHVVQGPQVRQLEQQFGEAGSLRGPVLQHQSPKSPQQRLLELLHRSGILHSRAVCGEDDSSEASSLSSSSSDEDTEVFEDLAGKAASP
Chain of Dual specificity protein kinase CLK2 (Homo sapiens) (P49760 whole entry, looked up): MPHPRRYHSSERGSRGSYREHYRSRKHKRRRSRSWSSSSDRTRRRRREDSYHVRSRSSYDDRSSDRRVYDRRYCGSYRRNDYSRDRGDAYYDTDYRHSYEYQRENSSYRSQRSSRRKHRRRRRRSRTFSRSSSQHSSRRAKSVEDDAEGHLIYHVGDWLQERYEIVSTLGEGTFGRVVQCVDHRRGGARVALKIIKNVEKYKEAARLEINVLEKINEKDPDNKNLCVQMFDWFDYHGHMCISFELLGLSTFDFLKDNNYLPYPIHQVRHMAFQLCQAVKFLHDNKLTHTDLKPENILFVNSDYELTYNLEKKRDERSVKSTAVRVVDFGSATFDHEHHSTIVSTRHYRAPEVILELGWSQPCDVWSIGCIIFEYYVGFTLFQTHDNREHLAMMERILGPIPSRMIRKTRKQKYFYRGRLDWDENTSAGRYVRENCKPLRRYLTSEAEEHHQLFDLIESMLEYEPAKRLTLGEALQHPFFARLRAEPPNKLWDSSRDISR

CN(C)C(=O)Cn1cc(-c2nc([C@@](C)(c3ccc(-c4cnc(N)nc4)cc3)C3CC3)no2)cn1 [BI 665915]
inactive: residual activity [1] 129% | residual activity [2] 95.5% | residual activity [3] 100% | residual activity [4] 148% | residual activity [5] 94% | residual activity [6] 87% | residual activity [7] 94.5% | residual activity [8] 113% | residual activity [9] 100% | residual activity [10] 86% | residual activity [11] 98.5% | inhibition [12] 7.43% | residual activity [13] 98.5% | residual activity [14] 101% | residual activity [15] 104% | residual activity [16] 99% | residual activity [17] 93%
